Source: publication PMC12529164, “Design, Synthesis, Structure–Activity Relationships, and Preliminary Anticancer Properties of Menthol-Modified Coumarin Esters and 3,4-Dihydrocoumarin Derivatives” (ACS Omega, 2025)
Read-outs that look alike come from different tables or passages of the source.

Assays:
[1] = tested on: MDA-MB-231; assay: MTT cytotoxicity assay; type: cell-based, human; conditions: for IC50: MTT, 72 h, human breast adenocarcinoma; for SI MDA-MB-231: SI = IC50 for normal cell line (HaCaT)/IC50 cancer cell line
Procedure: (§1) The human primary (SW480) and metastatic (SW620) colon cancer, metastatic prostate cancer (PC3), breast adenocarcinoma (MDA-MB-231) and human immortal keratinocyte (HaCaT) cell lines were recruited from the American Type Culture Collection (ATCC). The cells were cultured in the recommended medium according to protocols (RPMI 1640 for PC3, MEM for SW480 and SW620, as well as DMEM for MDA-MB-231 and HaCaT cells) with addition of 10% FBS, penicillin (100 U/mL), and streptomycin (100 μg/mL) and cultured in 37 °C/5% CO2 in a humidified incubator. Then, the cells were passaged at a confluence of 80–90% by a treatment with 0.25% trypsin (Gibco Life Technologies) and used for studies.
(§2) They were added to 96-well plates with seeded normal and cancer cells (1 × 10^4 cells per well) and incubated for 72 h. MTT analysis was performed according to a previous study.

[2] = tested on: SW480; assay: MTT cytotoxicity assay; type: cell-based, human; conditions: for IC50: MTT, 72 h, human primary colon cancer; for SI SW480: SI = IC50 for normal cell line (HaCaT)/IC50 cancer cell line
Procedure: as §1, §2

[3] = tested on: SW620; assay: MTT cytotoxicity assay; type: cell-based, human; conditions: for IC50: MTT, 72 h, human metastatic colon cancer; for SI SW620: SI = IC50 for normal cell line (HaCaT)/IC50 cancer cell line
Procedure: as §1, §2

[4] = tested on: tested cancer cell lines (SW480, SW620, PC3, MDA-MB-231); assay: MTT assay, mean over tested cancer cell lines; type: cell-based; conditions: Homo sapiens, mean of the four cancer cell lines
Procedure: They were added to 96-well plates with seeded normal and cancer cells (1 × 10^4 cells per well) and incubated for 72 h. MTT analysis was performed according to a previous study. […]

[5] = tested on: PC3; assay: MTT cytotoxicity assay; type: cell-based, human; conditions: for IC50: MTT, 72 h, human metastatic prostate cancer; for SI PC3: SI = IC50 for normal cell line (HaCaT)/IC50 cancer cell line
Procedure: as §1, §2

[6] = tested on: HaCaT; assay: MTT cytotoxicity assay, normal cells; type: cell-based; conditions: 72 h, human immortal keratinocytes (normal cells)
Procedure: as §1, §2

[7] = tested on: Danio rerio larvae; assay: In vivo toxicity, maximum tolerated concentration; conditions: zebrafish larvae, immersion from 96 hpf for 18 h (120 hpf), 5-150 μM tested
Procedure: Zebrafish (Danio rerio, strain AB) was maintained at the Experimental Medicine Center, Medical University of Lublin, Poland. Embryos and larvae up to 120 h postfertilization (hpf) were kept under generally accepted environmental conditions, i.e., in incubators at 28.5 °C, with 14/10 h light/dark cycles. The embryos of the Zebrafish were harvested after the natural reproduction process.
Three compounds showing low IC50 values determined on cancer lines in in vitro tests (2b, 4a) and compound 1a characterized by low cytotoxicity were used for in vivo tests. We also conducted research for coumarin. These compounds were dissolved in dimethyl sulfoxide (DMSO) (Sigma-Aldrich, St. Louis, MO, USA) and diluted in the zebrafish medium (pH 7.1–7.3; 5.0 mM NaCl, 0.17 mM KCl, 0.33 mM CaCl2, 0.33 mM MgSO4) to achieve a final DMSO concentration of 1% w/v. Twenty-four hpf zebrafish embryos were investigated under a light microscope, and […] fertilized embryos (n = 60) were selected and transferred into 48-well plates (5 embryos per well). Larvae were incubated in 1 mL of the zebrafish medium for up to 3 days after fertilization.
On the fourth day postfertilization (96 hpf), the larvae (10 individuals per group) were incubated in solutions of coumarin or its three derivatives (1a, 2b, 4a) at selected concentrations (5, 10, 25, 50, 75, 100, 150 μM), along with control solutions: negative control (zebrafish medium) and solvent control (1% DMSO in zebrafish medium). The maximum tolerated concentration (MTC) was calculated to assess the toxicity of the compounds and extracts. […] Larvae were individually inspected under a microscope for signs of acute locomotor dysfunction, including a weak reaction to light tail stimulation with a fine needle, disrupted posture, body deformities, protruding eyes, slowed or absent heartbeat, and mortality.

[8] = Table S7, >100 entered as 100, read-out: mean anticancer IC50
[9] = read-out: average IC50 against tested cancer cell lines

| Compound | IC50 [1] | IC50 [2] | IC50 [3] | IC50 [4, 8] | IC50 ([1]; MDA-MB-231) | SI MDA-MB-231 [1] | IC50 ([5]; PC-3) | SI PC3 [5] | SI SW480 [2] | IC50 ([2]; SW480) | SI SW620 [3] | IC50 ([3]; SW-620) | IC50 ([6]; HaCaT) | IC50 [4, 9] | IC50 [5] | IC50 [6] | maximum tolerated concentration (MTC) [7] |
| --- | --- | --- | --- | --- | --- | --- | --- | --- | --- | --- | --- | --- | --- | --- | --- | --- | --- |
| N.N.[Cl][Pt][Cl] [Cisplatin, reference compound] | 7.3 ± 0.8 µM | 10.4 ± 0.9 µM | 6.7 ± 1.1 µM |  |  |  |  |  |  |  |  |  |  |  |  |  |  |
| CC(C)[C@H]1CC[C@H](C)C[C@@H]1OC(=O)c1cc2ccccc2oc1=O [Compound 1b, (1S,2R,5S)-2-Isopropyl-5-methylcyclohexyl 2-oxo-2H-chromene-3-carboxylate] |  |  |  | > 100 µM | > 100 µM | 0.41 | > 100 µM | 0.41 | 0.41 | > 100 µM | 0.41 | > 100 µM | 41.1 ± 2.8 µM |  |  |  |  |
| COc1ccc2cc(C(=O)O[C@@H]3C[C@H](C)CC[C@H]3C(C)C)c(=O)oc2c1 [Compound 1c, (1R,2S,5R)-2-Isopropyl-5-methylcyclohexyl 7-methoxy-2-oxo-2H-chromene-3-carboxylate] |  |  |  | > 100 µM | > 100 µM | 0.15 | > 100 µM | 0.15 | 0.15 | > 100 µM | 0.15 | > 100 µM | 15.3 ± 4.41 µM |  |  |  |  |
| COc1cccc2cc(C(=O)O[C@@H]3C[C@H](C)CC[C@H]3C(C)C)c(=O)oc12 [Compound 1d, (1R,2S,5R)-2-Isopropyl-5-methylcyclohexyl 8-Methoxy-2-oxo-2H-chromene-3-carboxylate] |  |  |  | > 47.8 µM | 36.6 ± 7.74 µM | 2.73 | 29.3 ± 2.05 µM | 3.41 | 3.93 | 25.4 ± 6.12 µM | 1 | > 100 µM | > 100 µM | > 47.8 µM |  |  |  |
| CC(C)[C@@H]1CC[C@@H](C)C[C@H]1OC(=O)c1cc2ccc(O)cc2oc1=O [Compound 1e, (1R,2S,5R)-2-Isopropyl-5-methylcyclohexyl 7-hydroxy-2-oxo-2H-chromene-3-carboxylate] |  |  |  | 43.7 µM | 86.7 ± 2.24 µM | 0.91 | 21.8 ± 4.21 µM | 3.61 | 2.84 | 27.7 ± 2.42 µM | 2.03 | 38.7 ± 0.01 µM | 78.8 ± 7.12 µM | 43.7 µM |  |  |  |
| O=C(OC1CCCCC1)c1cc2ccccc2oc1=O [Compound 1f, Cyclohexyl 2-Oxo-2H-chromene-3-carboxylate] |  |  |  | > 100 µM | > 100 µM | 1 | > 100 µM | 1 | 1 | > 100 µM | 1 | > 100 µM | > 100 µM |  |  |  |  |
| CCOP(=O)(OCC)c1cc2ccccc2oc1=O [Compound 2a, Diethyl (2-Oxo-2H-chromen-3-yl)phosphonate] | > 100 µM | > 100 µM | > 100 µM |  |  | 1 |  | 1 | 1 |  | 1 |  |  |  | > 100 µM | > 100 µM |  |
| COc1cccc2cc(P(=O)(c3ccccc3)c3ccccc3)c(=O)oc12 [Compound 3, 3-(Diphenylphosphinyl)-8-methoxy-2H-chromen-2-one] |  |  |  | > 100 µM | > 100 µM | 1 | > 100 µM | 1 | 1 | > 100 µM | 1 | > 100 µM | > 100 µM |  |  |  |  |
| CCOC(=O)C1C(=O)Oc2ccccc2C1P(=O)(c1ccccc1)c1ccccc1 (stereo not drawn) [Compound 4c, Ethyl 4-(Diphenylphosphoryl)-2-oxochroman-3-carboxylate] |  |  |  | > 100 µM | > 100 µM | 1 | > 100 µM | 1 | 1 | > 100 µM | 1 | > 100 µM | > 100 µM |  |  |  |  |
| CCOC(=O)C1C(=O)Oc2ccccc2C1P(=O)(OCC)OCC (stereo not drawn) [Compound 4d, Ethyl 4-(diethoxyphosphoryl)-2-oxochroman-3-carboxylate] |  |  |  | > 100 µM | > 100 µM | 1 | > 100 µM | 1 | 1 | > 100 µM | 1 | > 100 µM | > 100 µM |  |  |  |  |
| CCOP(=O)(OCC)C1C(=O)Oc2ccccc2C1P(=O)(c1ccccc1)c1ccccc1 (stereo not drawn) [Compound 5a, Diethyl (4-(Diphenylphosphoryl)-2-oxochroman-3-yl)phosphonate] |  |  |  | > 100 µM | > 100 µM | 1 | > 100 µM | 1 | 1 | > 100 µM | 1 | > 100 µM | > 100 µM |  |  |  |  |
| CCOP(=O)(OCC)C1C(=O)Oc2c(OC)cccc2C1P(=O)(c1ccccc1)c1ccccc1 (stereo not drawn) [Compound 5b, Diethyl (4-(Diphenylphosphoryl)-8-methoxy-2-oxochroman-3-yl)phosphonate] |  |  |  | > 100 µM | > 100 µM | 1 | > 100 µM | 1 | 1 | > 100 µM | 1 | > 100 µM | > 100 µM |  |  |  |  |
| COc1cccc2c1C(=O)c1c(O)c3c(c(O)c1C2=O)C[C@@](O)(C(=O)CO)C[C@@H]3O[C@H]1C[C@H](N)[C@H](O)[C@H](C)O1 [Doxorubicin, reference compound] |  |  |  |  | 1.6 ± 0.2 µM |  | 0.3 ± 0.1 µM | 1.0 | 0.4 | 0.7 ± 0.1 µM | 1.0 | 0.3 ± 0.1 µM | 0.3 ± 0.1 µM |  |  |  |  |
| O=c1ccc2ccccc2o1 [coumarin, 2H-chromen-2-one] |  |  |  |  |  |  |  |  |  |  |  |  |  |  |  |  | 100 µM |
